For one compound, Kd results are on record in paper PMC10887160, “Phanogracilins A–C, New Bibenzochromenones of Crinoid Phanogenia gracilis (Hartlaub, 1890)” (Biomolecules, 2024).

Test [1] addresses T1, Mycobacterium tuberculosis CYP51 (Mycobacterium tuberculosis, UniProt P9WPP9). The test can be described thus: surface plasmon resonance. The format is binding. Background: SPR reads the build-up and loss of mass on a sensor chip optically.
The target in test [2] is Mycobacterium tuberculosis CYP124 (Mycobacterium tuberculosis, UniProt P9WPP3). The test can be described thus: surface plasmon resonance. The format is binding.
Sequence of Mycobacterium tuberculosis CYP124 (P9WPP3 whole entry): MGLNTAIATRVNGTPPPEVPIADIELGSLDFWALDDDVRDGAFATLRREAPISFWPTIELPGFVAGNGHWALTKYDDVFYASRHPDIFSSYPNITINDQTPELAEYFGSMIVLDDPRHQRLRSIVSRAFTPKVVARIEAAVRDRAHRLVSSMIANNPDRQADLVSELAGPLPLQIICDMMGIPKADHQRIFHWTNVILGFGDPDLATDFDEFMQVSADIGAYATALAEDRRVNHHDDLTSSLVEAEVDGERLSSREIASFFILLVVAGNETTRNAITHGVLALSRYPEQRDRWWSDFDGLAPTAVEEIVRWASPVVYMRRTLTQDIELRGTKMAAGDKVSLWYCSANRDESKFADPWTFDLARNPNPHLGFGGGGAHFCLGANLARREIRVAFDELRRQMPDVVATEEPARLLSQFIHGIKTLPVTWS
For a further test, the target named is T2, Homo sapiens CYP51 (Homo sapiens, UniProt Q16850).
T2 construct: gene CYP51A1; recombinant, immobilised on CM5 SPR chip
T2 sequence (Q16850 1-509): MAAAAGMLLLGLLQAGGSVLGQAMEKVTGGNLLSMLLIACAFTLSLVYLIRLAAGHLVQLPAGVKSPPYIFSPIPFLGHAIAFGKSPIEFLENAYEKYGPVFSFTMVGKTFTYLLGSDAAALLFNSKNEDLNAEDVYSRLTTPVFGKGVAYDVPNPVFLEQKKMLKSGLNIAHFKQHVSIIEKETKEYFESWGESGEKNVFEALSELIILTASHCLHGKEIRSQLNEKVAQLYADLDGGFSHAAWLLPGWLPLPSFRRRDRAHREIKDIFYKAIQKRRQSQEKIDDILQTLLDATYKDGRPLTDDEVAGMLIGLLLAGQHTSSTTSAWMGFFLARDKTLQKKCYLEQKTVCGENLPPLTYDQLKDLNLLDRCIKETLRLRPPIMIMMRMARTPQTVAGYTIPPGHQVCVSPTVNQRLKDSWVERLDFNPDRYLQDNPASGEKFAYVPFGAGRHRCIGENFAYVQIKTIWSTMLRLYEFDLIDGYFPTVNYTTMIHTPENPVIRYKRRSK
Put plainly: surface plasmon resonance. It is filed as binding.

Test [3] concerns the target T3, Mycobacterium tuberculosis CYP125 (Mycobacterium tuberculosis, UniProt P9WPP1). The test can be described thus: biochemical. Set-up: SPR (Biacore, CM5 chip, immobilised CYP), two-state reaction model, global fit KD. As to the method: (§1) Cytochrome P450 and steroid dehydrogenases are pharmaceutically significant drug targets. However, for most of these targets, there is no effective, selective and safe regulator. In this regard, many laboratories and pharmaceutical companies around the world are working on producing selective modulators of cytochrome P450 and human steroid dehydrogenase. […] Injection of a solution of ligands (studied CYPs) in immobilization buffer (10 mM sodium acetate, pH 4.5 in the case of CYP51 Candida albicans and Candida glabrata; 10 mM sodium acetate, pH 5.0 in the case of all other CYPs) was carried out for 5 min at flow rate 5 µL/min. After this, the chip was incubated for 1 hour in a docked state in the “Stand By” device mode at a measuring cell temperature of 25°C, which led to the hydrolysis of unreacted activated dextran groups. Table S4. The amount of the ligand immobilized on the chip. MT - Mycobacterium tuberculosis, human - Homo sapiens, Calb - Candida albicans, Cglab - Candida glabrata Ligands The amount of the ligand immobilized, RU CYP51_MT 5499 CYP124_MT 3315 CYP125_MT 5730 CYP126_MT 4590 CYP142_MT 2445 CYP51_human 8286 CYP51_Calb 2603 CYP51_Cglab 4888

For test [4], the target named is T1, Mycobacterium tuberculosis CYP51. The test can be described thus: biochemical. Set-up: SPR (Biacore, CM5 chip, immobilised CYP), two-state reaction model, global fit KD. How it is done:
as §1

Test [5] has as its target T4, Mycobacterium tuberculosis CYP126 (Mycobacterium tuberculosis, UniProt P9WPN9). Put plainly: biochemical. Set-up: SPR (Biacore, CM5 chip, immobilised CYP), two-state reaction model, global fit KD. How it is done: as §1
Test [6] deals with T5, Candida glabrata CYP51 (Nakaseomyces glabratus, UniProt P50859).
T5 construct: gene ERG11; recombinant, immobilised on CM5 SPR chip
T5 sequence (P50859 whole entry): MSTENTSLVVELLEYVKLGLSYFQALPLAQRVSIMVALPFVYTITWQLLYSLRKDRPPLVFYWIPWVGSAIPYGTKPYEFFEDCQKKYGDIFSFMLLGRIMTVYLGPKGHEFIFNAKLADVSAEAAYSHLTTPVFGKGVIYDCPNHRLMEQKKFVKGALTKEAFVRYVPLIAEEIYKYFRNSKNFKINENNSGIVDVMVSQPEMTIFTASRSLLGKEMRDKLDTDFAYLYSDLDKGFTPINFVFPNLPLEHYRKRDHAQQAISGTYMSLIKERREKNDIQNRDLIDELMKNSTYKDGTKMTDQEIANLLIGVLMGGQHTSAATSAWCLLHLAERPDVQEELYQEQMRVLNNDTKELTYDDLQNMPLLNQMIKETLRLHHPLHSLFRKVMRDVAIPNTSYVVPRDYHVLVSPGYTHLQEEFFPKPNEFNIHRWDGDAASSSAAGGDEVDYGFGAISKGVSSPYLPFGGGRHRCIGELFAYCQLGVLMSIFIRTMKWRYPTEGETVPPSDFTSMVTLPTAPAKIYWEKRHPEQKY
Put plainly: biochemical. To be noted: SPR, two-state model; read-out: KD (мкM). Set-up: SPR (Biacore, CM5 chip, immobilised CYP), two-state reaction model, global fit KD. As to the method: as §1

Test [7] concerns the target T4, Mycobacterium tuberculosis CYP126. Put plainly: surface plasmon resonance. It is filed as binding.
The target in test [8] is T5, Candida glabrata CYP51. The test can be described thus: surface plasmon resonance. It is filed as binding.
Test [9] addresses Mycobacterium tuberculosis CYP142 (Mycobacterium tuberculosis, UniProt P9WPL5). Put plainly: surface plasmon resonance. The format is binding.
In a further test the target is T6, Candida albicans CYP51 (Candida albicans, UniProt P10613).
T6 construct: gene ERG11; recombinant, immobilised on CM5 SPR chip
T6 sequence (P10613 whole entry): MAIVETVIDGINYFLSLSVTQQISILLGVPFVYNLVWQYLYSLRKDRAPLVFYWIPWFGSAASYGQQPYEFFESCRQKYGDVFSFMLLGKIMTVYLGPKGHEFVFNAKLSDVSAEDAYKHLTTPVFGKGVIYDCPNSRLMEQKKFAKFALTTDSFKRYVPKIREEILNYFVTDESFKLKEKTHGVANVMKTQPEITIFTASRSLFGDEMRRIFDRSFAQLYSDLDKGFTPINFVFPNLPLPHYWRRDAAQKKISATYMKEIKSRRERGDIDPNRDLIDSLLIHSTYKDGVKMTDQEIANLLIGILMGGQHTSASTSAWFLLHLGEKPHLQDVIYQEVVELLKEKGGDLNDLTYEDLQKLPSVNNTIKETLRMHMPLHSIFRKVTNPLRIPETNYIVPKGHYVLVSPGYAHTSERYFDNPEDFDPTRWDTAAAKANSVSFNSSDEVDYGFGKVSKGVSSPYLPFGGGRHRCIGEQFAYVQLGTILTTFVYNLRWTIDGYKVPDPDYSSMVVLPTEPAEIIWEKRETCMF
Put plainly: surface plasmon resonance. The format is binding.

The target of test [10] is T3, Mycobacterium tuberculosis CYP125. Put plainly: surface plasmon resonance. The format is binding.

T3 sequence (P9WPP1 whole entry): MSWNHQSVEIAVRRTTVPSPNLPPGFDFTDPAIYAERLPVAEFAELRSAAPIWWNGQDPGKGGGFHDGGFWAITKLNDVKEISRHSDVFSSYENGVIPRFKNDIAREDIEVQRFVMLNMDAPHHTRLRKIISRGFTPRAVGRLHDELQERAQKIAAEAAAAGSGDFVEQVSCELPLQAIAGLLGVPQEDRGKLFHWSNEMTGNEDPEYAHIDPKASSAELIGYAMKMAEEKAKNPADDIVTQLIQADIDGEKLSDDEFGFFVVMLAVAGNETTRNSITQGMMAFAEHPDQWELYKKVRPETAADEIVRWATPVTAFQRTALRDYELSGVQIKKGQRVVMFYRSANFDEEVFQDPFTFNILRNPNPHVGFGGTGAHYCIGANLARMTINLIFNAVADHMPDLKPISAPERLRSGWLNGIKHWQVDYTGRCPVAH
T1 sequence (P9WPP9 whole entry): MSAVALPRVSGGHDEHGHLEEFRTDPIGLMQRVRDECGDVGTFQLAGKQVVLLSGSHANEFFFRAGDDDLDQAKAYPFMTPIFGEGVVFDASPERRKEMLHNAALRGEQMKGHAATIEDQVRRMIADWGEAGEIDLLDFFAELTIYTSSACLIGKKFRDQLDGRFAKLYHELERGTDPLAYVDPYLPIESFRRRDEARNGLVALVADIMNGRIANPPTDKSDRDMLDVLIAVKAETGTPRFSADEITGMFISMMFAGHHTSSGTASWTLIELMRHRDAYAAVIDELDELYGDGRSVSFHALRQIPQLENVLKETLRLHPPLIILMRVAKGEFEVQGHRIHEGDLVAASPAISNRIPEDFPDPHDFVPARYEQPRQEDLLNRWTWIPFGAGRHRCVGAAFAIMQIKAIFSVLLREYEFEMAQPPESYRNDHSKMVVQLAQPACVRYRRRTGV
T4 sequence (P9WPN9 whole entry): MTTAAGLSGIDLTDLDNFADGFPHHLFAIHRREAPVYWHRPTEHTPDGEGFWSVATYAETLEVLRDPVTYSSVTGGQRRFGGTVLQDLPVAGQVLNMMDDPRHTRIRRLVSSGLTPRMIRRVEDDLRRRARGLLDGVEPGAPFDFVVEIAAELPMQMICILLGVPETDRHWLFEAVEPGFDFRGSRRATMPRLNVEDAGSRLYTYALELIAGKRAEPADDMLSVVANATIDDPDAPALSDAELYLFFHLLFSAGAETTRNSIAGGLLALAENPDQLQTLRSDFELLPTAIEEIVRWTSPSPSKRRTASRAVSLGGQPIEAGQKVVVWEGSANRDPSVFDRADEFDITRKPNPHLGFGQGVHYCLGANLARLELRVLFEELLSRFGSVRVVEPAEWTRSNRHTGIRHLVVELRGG
Sequence of Mycobacterium tuberculosis CYP142 (P9WPL5 whole entry): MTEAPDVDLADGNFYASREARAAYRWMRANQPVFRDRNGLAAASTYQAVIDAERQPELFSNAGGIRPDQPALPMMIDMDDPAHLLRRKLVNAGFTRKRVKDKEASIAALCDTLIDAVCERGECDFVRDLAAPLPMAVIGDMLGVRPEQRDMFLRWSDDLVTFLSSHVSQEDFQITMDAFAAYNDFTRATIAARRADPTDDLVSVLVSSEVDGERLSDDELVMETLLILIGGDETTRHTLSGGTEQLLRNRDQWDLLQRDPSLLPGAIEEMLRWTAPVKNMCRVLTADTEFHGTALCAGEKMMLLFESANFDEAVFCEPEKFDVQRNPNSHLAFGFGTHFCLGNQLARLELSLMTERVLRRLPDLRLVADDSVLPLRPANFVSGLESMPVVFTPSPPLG

By Kd is commonly meant the equilibrium constant for the complex coming apart. On to `CCCc1cc(=O)c2c(O)c3c(O)c(-c4c(O)cc(O)c5c(O)c6c(=O)cc(CCC)oc6cc45)c(O)cc3cc2o1` [compound 1, 5,5′,6,6′,8,8′-hexahydroxy-2,2′-dipropyl-4H,4′H-[7,9′-bibenzo[g]chromene]-4,4′-dione], for which the dissociation constant Kd is over 10 µM in [1]; over 10 µM in test [2]; over 10 µM at Homo sapiens CYP51; 55.3 µM in test [3]; 67.3 µM in [4]; 60.5 µM in [5]. Also, the Kd at Candida glabrata CYP51 [6] was 93.9 µM; in test [7], over 10 µM; on Candida glabrata CYP51 [8], over 10 µM; in test [9], over 10 µM; at Candida albicans CYP51 it was over 10 µM; in test [10] it was over 10 µM.
